Our source for the IC50 values is patent US8003785B2 (Takeda Pharmaceutical Company Limited, priority 2008, dated 2011).

The target in this test is T1, PLK1 (Homo sapiens, UniProt P53350).
T1 construct: Full-length, active GST-PLK1 is purified from Sf9 insect cells; made in house; host or cells: Sf9 insect cells
T1 sequence (P53350 whole entry): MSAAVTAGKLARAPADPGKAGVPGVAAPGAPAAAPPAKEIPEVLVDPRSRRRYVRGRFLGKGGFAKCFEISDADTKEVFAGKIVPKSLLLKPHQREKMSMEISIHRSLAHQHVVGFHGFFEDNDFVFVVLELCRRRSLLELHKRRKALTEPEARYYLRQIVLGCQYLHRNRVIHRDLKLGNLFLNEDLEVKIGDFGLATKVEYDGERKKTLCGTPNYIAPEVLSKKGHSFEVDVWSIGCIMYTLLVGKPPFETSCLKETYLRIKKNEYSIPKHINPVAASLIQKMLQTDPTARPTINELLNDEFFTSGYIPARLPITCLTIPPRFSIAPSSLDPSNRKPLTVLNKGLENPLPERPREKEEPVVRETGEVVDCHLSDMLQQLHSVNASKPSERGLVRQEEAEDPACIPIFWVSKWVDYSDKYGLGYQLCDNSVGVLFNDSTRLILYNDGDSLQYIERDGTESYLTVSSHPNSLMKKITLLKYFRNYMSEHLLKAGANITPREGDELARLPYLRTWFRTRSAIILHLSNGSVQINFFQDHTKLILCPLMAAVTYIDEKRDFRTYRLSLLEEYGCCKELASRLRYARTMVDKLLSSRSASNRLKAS
Nature of the test: Biochemical Characterization Assay: HTRF kinase assay, GST-PLK1 phosphorylation of GST-p53. Particulars: GST-PLK1, GST-p53 substrate. The method, boiled down:
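HTRF read-out of p53 phosphorylation: after EDTA stop, anti-phospho-p53 antibody bound 30 min at 37 °C in HEPES pH 7 buffer, with Eu-anti-rabbit/APC-anti-GST detection. Kinase step used full-length Sf9-expressed GST-PLK1 (3 ug/mL) and E. coli GST-p53 substrate, 35 min at 37 °C.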
On the technique in general: TR-FRET usually uses a lanthanide donor and a delayed reading to cut background.
As a reminder, the IC50 is the concentration needed to halve the response being measured. `CNC(=O)c1ccc(Nc2ncc3c(n2)N(CCc2ccccc2)CC(F)(F)C(=O)N3C)c(OC)c1` [Example I-278, 4-(7,7-difluoro-5-methyl-6-oxo-9-phenethyl-6,7,8,9-tetrahydro-5H-pyrimido[4,5-b][1,4]diazepin-2-ylamino)-3-methoxy-N-methyl-benzamide] came in with an IC50 of 51 to 500 nM. Next, `COc1cc(C(=O)NCCCN(C)C)ccc1Nc1ncc2c(n1)N(CCc1ccccc1)CC(F)(F)C(=O)N2C` [Example I-279, 4-(7,7-difluoro-5-methyl-6-oxo-9-phenethyl-6,7,8,9-tetrahydro-5H-pyrimido[4,5-b][1,4]diazepin-2-ylamino)-N-(3-dimethylamino-propyl)-3-methoxy-benzamide]: 51 to 500 nM. Consider `COc1cc(C(=O)NC2CCOCC2)ccc1Nc1ncc2c(n1)N(CCc1ccccc1)CC(F)(F)C(=O)N2C` [Example I-280, 4-(7,7-difluoro-5-methyl-6-oxo-9-phenethyl-6,7,8,9-tetrahydro-5H-pyrimido[4,5-b][1,4]diazepin-2-ylamino)-3-methoxy-N-(tetrahydro-pyran-4-yl)-benzamide], for which the IC50 is 51 to 500 nM. Next, `COc1cc(C(=O)O)ccc1Nc1ncc2c(n1)N(CCCc1ccccc1)CC(F)(F)C(=O)N2C` [Example I-281, 4-[7,7-difluoro-5-methyl-6-oxo-9-(3-phenyl-propyl)-6,7,8,9-tetrahydro-5H-pyrimido[4,5-b][1,4]diazepin-2-ylamino]-3-methoxy-benzoic acid]: 51 to 500 nM. The value for `COc1cc(C(=O)NC2CCN(C)CC2)ccc1Nc1ncc2c(n1)N(CCCc1ccccc1)CC(F)(F)C(=O)N2C` [Example I-282, 4-[7,7-difluoro-5-methyl-6-oxo-9-(3-phenyl-propyl)-6,7,8,9-tetrahydro-5H-pyrimido[4,5-b][1,4]diazepin-2-ylamino]-3-methoxy-N-(1-methyl-piperidin-4-yl)-benzamide] was 1 to 50 nM; that for `COc1cc(C(N)=O)ccc1Nc1ncc2c(n1)N(CCCc1ccccc1)CC(F)(F)C(=O)N2C` [Example I-283, 4-[7,7-difluoro-5-methyl-6-oxo-9-(3-phenyl-propyl)-6,7,8,9-tetrahydro-5H-pyrimido[4,5-b][1,4]diazepin-2-ylamino]-3-methoxy-benzamide] was 51 to 500 nM; that for `CNC(=O)c1ccc(Nc2ncc3c(n2)N(CCCc2ccccc2)CC(F)(F)C(=O)N3C)c(OC)c1` [Example I-284, 4-[7,7-difluoro-5-methyl-6-oxo-9-(3-phenyl-propyl)-6,7,8,9-tetrahydro-5H-pyrimido[4,5-b][1,4]diazepin-2-ylamino]-3-methoxy-N-methyl-benzamide] was 51 to 500 nM. The value for `COc1cc(C(=O)NCCCN(C)C)ccc1Nc1ncc2c(n1)N(CCCc1ccccc1)CC(F)(F)C(=O)N2C` [Example I-285, 4-[7,7-difluoro-5-methyl-6-oxo-9-(3-phenyl-propyl)-6,7,8,9-tetrahydro-5H-pyrimido[4,5-b][1,4]diazepin-2-ylamino]-N-(3-dimethylamino-propyl)-3-methoxy-benzamide] was 1 to 50 nM; that for `COc1cc(C(=O)NC2CCOCC2)ccc1Nc1ncc2c(n1)N(CCCc1ccccc1)CC(F)(F)C(=O)N2C` [Example I-286, 4-[7,7-difluoro-5-methyl-6-oxo-9-(3-phenyl-propyl)-6,7,8,9-tetrahydro-5H-pyrimido[4,5-b][1,4]diazepin-2-ylamino]-3-methoxy-N-(tetrahydro-pyran-4-yl)-benzamide] was 51 to 500 nM. Compound `COc1ccc(CN2CC(F)(F)C(=O)N(C)c3cnc(Nc4ccc(C(=O)NC5CCN(C)CC5)cc4OC)nc32)cc1` [Example I-291, 4-[7,7-difluoro-9-(4-methoxy-benzyl)-5-methyl-6-oxo-6,7,8,9-tetrahydro-5H-pyrimido[4,5-b][1,4]diazepin-2-ylamino]-3-methoxy-N-(1-methyl-piperidin-4-yl)-benzamide] registered an IC50 of 51 to 500 nM. Compound `COc1cc(C(=O)O)ccc1Nc1ncc2c(n1)N(C(C)C)CC(F)(F)C(=O)N2C` [Example I-292, 4-(7,7-difluoro-9-isopropyl-5-methyl-6-oxo-6,7,8,9-tetrahydro-5H-pyrimido[4,5-b][1,4]diazepin-2-ylamino)-3-methoxy-benzoic acid] came in with an IC50 of 51 to 500 nM. Next, `COc1cc(C(=O)NC2CCN(C)CC2)ccc1Nc1ncc2c(n1)N(C(C)C)CC(F)(F)C(=O)N2C` [Example I-293, 4-(7,7-difluoro-9-isopropyl-5-methyl-6-oxo-6,7,8,9-tetrahydro-5H-pyrimido[4,5-b][1,4]diazepin-2-ylamino)-3-methoxy-N-(1-methyl-piperidin-4-yl)-benzamide]: 1 to 50 nM; `COc1cc(C(N)=O)ccc1Nc1ncc2c(n1)N(C(C)C)CC(F)(F)C(=O)N2C` [Example I-294, 4-(7,7-difluoro-9-isopropyl-5-methyl-6-oxo-6,7,8,9-tetrahydro-5H-pyrimido[4,5-b][1,4]diazepin-2-ylamino)-3-methoxy-benzamide]: 1 to 50 nM. The value for `CNC(=O)c1ccc(Nc2ncc3c(n2)N(C(C)C)CC(F)(F)C(=O)N3C)c(OC)c1` [Example I-295, 4-(7,7-difluoro-9-isopropyl-5-methyl-6-oxo-6,7,8,9-tetrahydro-5H-pyrimido[4,5-b][1,4]diazepin-2-ylamino)-3-methoxy-N-methyl-benzamide] was 1 to 50 nM. `COc1cc(C(=O)NCCCN(C)C)ccc1Nc1ncc2c(n1)N(C(C)C)CC(F)(F)C(=O)N2C` [Example I-296, 4-(7,7-difluoro-9-isopropyl-5-methyl-6-oxo-6,7,8,9-tetrahydro-5H-pyrimido[4,5-b][1,4]diazepin-2-ylamino)-N-(3-dimethylamino-propyl)-3-methoxy-benzamide] displayed an IC50 of 1 to 50 nM.

Compound `COc1cc(C(=O)NC2CCOCC2)ccc1Nc1ncc2c(n1)N(C(C)C)CC(F)(F)C(=O)N2C` [Example I-297, 4-(7,7-difluoro-9-isopropyl-5-methyl-6-oxo-6,7,8,9-tetrahydro-5H-pyrimido[4,5-b][1,4]diazepin-2-ylamino)-3-methoxy-N-(tetrahydro-pyran-4-yl)-benzamide] had an IC50 of 1 to 50 nM. Next, `COc1cc(C(=O)NC2CCN(C)CC2)ccc1Nc1ncc2c(n1)N(C1CCCC1)CC(Cl)(Cl)C(=O)N2C` [Example I-298, 4-(7,7-dichloro-9-cyclopentyl-5-methyl-6-oxo-6,7,8,9-tetrahydro-5H-pyrimido[4,5-b][1,4]diazepin-2-ylamino)-3-methoxy-N-(1-methyl-piperidin-4-yl)-benzamide]: 1 to 50 nM; `COc1cc(C(=O)N[C@H]2CC[C@@H](N3CCN(CC4CC4)CC3)CC2)ccc1Nc1ncc2c(n1)N(C1CCCC1)CC(F)(F)C(=O)N2C` [Example I-299, 4-(9-cyclopentyl-7,7-difluoro-5-methyl-6-oxo-6,7,8,9-tetrahydro-5H-pyrimido[4,5-b][1,4]diazepin-2-ylamino)-N-[cis-4-(4-cyclopropylmethyl-piperazin-1-yl)-cyclohexyl]-3-methoxy-benzamide]: 1 to 50 nM; `COc1cc(C(=O)N[C@H]2CC[C@H](N3CCN(CC4CC4)CC3)CC2)ccc1Nc1ncc2c(n1)N(C1CCCC1)CC(F)(F)C(=O)N2C` [Example I-300, 4-(9-cyclopentyl-7,7-difluoro-5-methyl-6-oxo-6,7,8,9-tetrahydro-5H-pyrimido[4,5-b][1,4]diazepin-2-ylamino)-N-[trans-4-(4-cyclopropylmethyl-piperazin-1-yl)-cyclohexyl]-3-methoxy-benzamide]: 1 to 50 nM.
